Here are results for seven molecules from patent US9695155B2, “Herbicidal substituted pyrimidinyloxy benzene compounds” (E. I. DU PONT DE NEMOURS AND COMPANY, priority 2013, dated 2017).

The test system of the assay is corn. Kind of assay: Test E preemergence. The format is in vivo, Zea mays. The note with it: for Corn plant response rating: scale 0 to 100 (0 no effect, 100 complete control). An excerpt: Seeds of plant species selected from corn (Zea mays), soybean (Glycine max), velvetleaf (Abutilon theophrasti), lambsquarters (Chenopodium album), wild poinsettia (Euphorbia heterophylla), palmer pigweed (Amaranthus palmeri), waterhemp (common waterhemp, Amaranthus rudis), surinam grass (Brachiaria decumbens), large (Lg) crabgrass (Digitaria sanguinalis), Brazilian crabgrass (Digitaria horizontalis), fall panicum (Panicum dichotomiflorum), giant foxtail (Setaria faberii), green foxtail (Setaria viridis), goosegrass (Eleusine indica), johnsongrass (Sorghum halepense), ragweed (common ragweed, Ambrosia elatior), barnyardgrass (Echinochloa crus-galli), sandbur (southern sandbur, Cenchrus echinatus), arrowleaf sida (Sida rhombifolia), Italian ryegrass (Lolium multiflorum), dayflower (Virginia (VA) dayflower, Commelina virginica), field bindweed (Convolvulus arvensis), morningglory (Ipomoea coccinea), nightshade (eastern black nightshade, Solanum ptycanthum), kochia (Kochia scoparia), yellow nutsedge (Cyperus esculentus), cocklebur (common cocklebur, Xanthium strumarium), smartweed (ladysthumb smartweed, and hairy beggarticks (Bidens pilosa), were planted into a silt loam soil and treated preemergence with test chemicals formulated in a non-phytotoxic solvent mixture which included a surfactant.
At the same time, plants from these crop and weed species and also horseweed (Canada horseweed, Conyza canadensis), waterhemp_RES1, (ALS & Triazine resistant common waterhemp, Amaranthus rudis), and waterhemp_RES2, (ALS & HPPD resistant common waterhemp, Amaranthus rudis) were planted in pots containing Redi-Earth® planting medium (Scotts Company, 14111 Scottslawn Road, Marysville, Ohio 43041) comprising spaghnum peat moss, vermiculite, wetting agent and starter nutrients were treated with postemergence applications of test chemicals formulated in the same manner. Plants ranged in height from 2 to 18 cm for postemergence treatments (1- to 4-leaf stage). Treated plants and controls were maintained in a greenhouse for 14 to 21 days, after which time all species were compared to controls and visually evaluated. Plant response ratings, summarized in Table E, are based on a scale of 0 to 100 where 0 is no effect and 100 is complete control. A dash (-) response means no test result.

[1] abbreviates: 125 g ai/ha, scale 0 to 100, 0 no effect, 100 complete control.
[2] abbreviates: 250 g ai/ha, scale 0 to 100, 0 no effect, 100 complete control.
Setting [3] is: 8 g ai/ha, scale 0 to 100, 0 is no effect, 100 is complete control.

As for `Cc1cnc(Oc2cccc(C#N)c2-n2cc(C(F)(F)F)cn2)nc1` [Compound 180], the “Corn plant response rating” value runs as follows: (31 g ai/ha) 0; (62 g ai/ha) 15. Also, the “Plant response rating, Corn” value amounted to 40 under setting [1] and 65 under setting [2].
Regarding `N#Cc1cccc(Oc2ncc(Cl)cn2)c1-n1cc(Cl)cn1` [Compound 72], the “Corn plant response rating” value is recorded as 0 (16 g ai/ha), 0 (31 g ai/ha) and 0 (62 g ai/ha). Moreover, the “Plant response rating, Corn” value is, setting by setting: under setting [1], 0; under setting [2], 0.
Consider `FC(F)c1cccc(Oc2ncc(Cl)cn2)c1-n1cc(C(F)(F)F)cn1` [Compound 170], for which the “Plant response rating, Corn” value was 0 under setting [3] and 30 under setting [1]. In addition, the “Corn plant response rating” value was found to be 0 (16 g ai/ha), 20 (31 g ai/ha) and 10 (62 g ai/ha).
Turning to `Fc1cnc(Oc2cccc(C(F)F)c2-n2cc(C(F)(F)F)cn2)nc1` [Compound 164], the “Corn plant response rating” value is listed as 0 (16 g ai/ha), 0 (31 g ai/ha) and 0 (62 g ai/ha). In addition, the “Plant response rating, Corn” value under setting [1] amounted to 0.
Consider `N#Cc1cnn(-c2c(C#N)cccc2Oc2ncc(Cl)cn2)c1` [Compound 200], for which the “Corn plant response rating” value is listed as 0 (16 g ai/ha), 5 (31 g ai/ha) and 30 (62 g ai/ha). Besides, the “Plant response rating, Corn” value under setting [1] turned out to be 30 and the “Plant response rating, Corn” value under setting [2] was 75.
Turning to `Cc1cnc(Oc2cccc(C#N)c2-n2cc(C#N)cn2)nc1` [Compound 90], the “Corn plant response rating” value runs as follows: (16 g ai/ha) 0; (31 g ai/ha) 0; (62 g ai/ha) 0. Further, under setting [1], the “Plant response rating, Corn” value turned out to be 0.
With `NC(=S)c1cccc(Oc2ncc(Cl)cn2)c1-n1cc(Cl)cn1` [Compound 292], the “Plant response rating, Corn” value is, setting by setting: under setting [3], 0; under setting [1], 0. Also, the “Corn plant response rating” value (16 g ai/ha) is given as 0, the “Corn plant response rating” value (31 g ai/ha) stood at 0 and the “Corn plant response rating” value (62 g ai/ha) is 0.
